Results published in ChEMBL document CHEMBL4400547 (J Med Chem, 2019).
Values after ≈ are worked out from the molar mass of the structure shown. Active and inactive are the calls of the source. The calls are words filed in the database; no cut-off is given here.

Legend:
physchem = settings: buffer
Description: Aqueous kinetic solubility of the compound

[1] = target: T1, Serine/threonine-protein kinase/endoribonuclease IRE1 (Homo sapiens, UniProt O75460); assay: Inhibition of dephosphorylated IRE1alpha (G547 to L977 residues) (unknown origin) autophosphorylation at S724 after 25 mins in presence of ATP by dissociation-enhanced lanthanide fluorescence immunoassay
Target sequence in this assay (O75460 whole entry, the tested form may be a part): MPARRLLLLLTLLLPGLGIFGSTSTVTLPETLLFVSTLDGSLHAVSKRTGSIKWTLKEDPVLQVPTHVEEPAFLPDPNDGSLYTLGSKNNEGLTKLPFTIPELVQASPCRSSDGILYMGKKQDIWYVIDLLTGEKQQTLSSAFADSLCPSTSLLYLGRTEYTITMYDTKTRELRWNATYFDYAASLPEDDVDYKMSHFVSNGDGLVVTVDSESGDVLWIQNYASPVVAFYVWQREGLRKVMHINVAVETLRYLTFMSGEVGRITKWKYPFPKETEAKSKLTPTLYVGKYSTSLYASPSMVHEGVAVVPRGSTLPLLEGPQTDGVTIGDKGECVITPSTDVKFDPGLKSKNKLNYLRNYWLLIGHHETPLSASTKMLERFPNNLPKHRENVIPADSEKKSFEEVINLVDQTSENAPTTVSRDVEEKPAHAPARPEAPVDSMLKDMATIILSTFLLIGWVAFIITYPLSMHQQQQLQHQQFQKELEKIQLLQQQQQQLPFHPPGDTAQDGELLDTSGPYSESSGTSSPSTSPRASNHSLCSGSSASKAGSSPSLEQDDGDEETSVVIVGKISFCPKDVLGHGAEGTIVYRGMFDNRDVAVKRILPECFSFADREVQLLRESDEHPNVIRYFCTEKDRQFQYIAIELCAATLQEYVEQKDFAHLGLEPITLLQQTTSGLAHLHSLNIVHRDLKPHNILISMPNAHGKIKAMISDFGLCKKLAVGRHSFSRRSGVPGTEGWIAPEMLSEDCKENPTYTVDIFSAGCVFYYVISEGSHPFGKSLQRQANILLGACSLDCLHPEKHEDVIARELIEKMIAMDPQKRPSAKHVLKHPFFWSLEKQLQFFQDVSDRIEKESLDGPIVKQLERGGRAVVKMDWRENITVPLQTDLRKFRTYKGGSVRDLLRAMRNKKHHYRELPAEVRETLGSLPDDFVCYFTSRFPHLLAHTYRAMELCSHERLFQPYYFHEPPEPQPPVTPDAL

[2] = target: T1, Serine/threonine-protein kinase/endoribonuclease IRE1; assay: Displacement for LanthaScreen tracer from dephosphorylated IRE1alpha (G547 to L977 residues) (unknown origin) ATP binding site […] after 60 mins by FRET assay
Target sequence in this assay (O75460 whole entry, the tested form may be a part): as above

[3] = Distribution coefficient, log D of the compound at pH 7.4; format: physicochemical; settings: octanol/water
[4] = target: Dual specificity protein kinase CLK2 (Homo sapiens) (UniProt P49760); assay: Inhibition of recombinant human GST-tagged CLK2 expressed in baculovirus expression system at 1 uM by kinomescan assay relative to control
[5] = target: Dual specificity protein kinase CLK1 (Homo sapiens) (UniProt P49759); assay: Inhibition of recombinant human GST-tagged CLK1 expressed in Escherichia coli at 1 uM by kinomescan assay relative to control
[6] = target: Dual specificity tyrosine-phosphorylation-regulated kinase 2 (Homo sapiens) (UniProt Q92630); assay: Inhibition of recombinant human GST-tagged DYRK2 at 1 uM by kinomescan assay relative to control
Sequence of Dual specificity tyrosine-phosphorylation-regulated kinase 2 (Homo sapiens) (Q92630 whole entry, the tested form may be a part): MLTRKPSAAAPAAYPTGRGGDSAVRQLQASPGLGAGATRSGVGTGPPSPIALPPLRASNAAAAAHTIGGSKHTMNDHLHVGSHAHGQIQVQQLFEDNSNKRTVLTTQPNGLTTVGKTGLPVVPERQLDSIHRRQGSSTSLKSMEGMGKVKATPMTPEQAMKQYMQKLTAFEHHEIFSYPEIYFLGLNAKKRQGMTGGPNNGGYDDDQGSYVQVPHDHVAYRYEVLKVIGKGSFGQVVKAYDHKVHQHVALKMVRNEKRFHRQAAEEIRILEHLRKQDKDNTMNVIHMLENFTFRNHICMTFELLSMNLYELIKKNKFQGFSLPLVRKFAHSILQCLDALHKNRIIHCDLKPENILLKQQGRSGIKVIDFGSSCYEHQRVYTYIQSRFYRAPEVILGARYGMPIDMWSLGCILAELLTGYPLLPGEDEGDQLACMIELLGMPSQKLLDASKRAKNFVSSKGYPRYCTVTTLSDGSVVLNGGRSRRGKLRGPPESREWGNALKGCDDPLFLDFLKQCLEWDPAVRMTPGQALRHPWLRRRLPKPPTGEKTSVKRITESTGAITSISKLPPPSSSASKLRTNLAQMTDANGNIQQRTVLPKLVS

[7] = target: Cyclin-G-associated kinase (Homo sapiens) (UniProt O14976); assay: Inhibition of recombinant human GST-tagged GAK (1 to 396 residues) expressed in insect cell expression system at 1 uM by kinomescan assay relative to control
[8] = target: T1, Serine/threonine-protein kinase/endoribonuclease IRE1; assay: Inhibition of dephosphorylated IRE1alpha (G547 to L977 residues) (unknown origin) -dependent cleavage of FAM-labeled stem-loop RNA containing the XBP1 cleavage site preincubated for 30 mins followed by RNA XBP1 substrate addition and measured after 15 mins by FRET assay
Target sequence in this assay (O75460 whole entry, the tested form may be a part): as the sequence (O75460 whole entry, the tested form may be a part) above

[9] = target: T1, Serine/threonine-protein kinase/endoribonuclease IRE1; assay: Inhibition of tunicamycin-induced IRE1alpha (unknown origin) expressed in HEK293 cells assessed as reduction in IRE1alpha-dependent splicing of XBP1u-luciferase mRNA by luciferase reporter gene assay; format: cell-based
Target sequence in this assay (O75460 whole entry, the tested form may be a part): as above

[10] = target: Dual specificity protein kinase CLK4 (Homo sapiens) (UniProt Q9HAZ1); assay: Inhibition of recombinant full length human GST-tagged CLK4 expressed in baculovirus expression system at 1 uM by kinomescan assay relative to control
[11] = target: Dual specificity tyrosine-phosphorylation-regulated kinase 1A (Homo sapiens) (UniProt Q13627); assay: Inhibition of recombinant full length human GST-tagged DYRK1A expressed in baculovirus expression system at 1 uM by kinomescan assay relative to control
[12] = target: Dual specificity tyrosine-phosphorylation-regulated kinase 1B (Homo sapiens) (UniProt Q9Y463); assay: Inhibition of recombinant full length human GST-tagged DYRK1B expressed in baculovirus expression system at 1 uM by kinomescan assay relative to control
[13] = target: Homeodomain-interacting protein kinase 1 (Homo sapiens) (UniProt Q86Z02); assay: Inhibition of recombinant human GST-tagged HIPK1 expressed in baculovirus expression system at 1 uM by kinomescan assay relative to control
[14] = target: Homeodomain-interacting protein kinase 2 (Homo sapiens) (UniProt Q9H2X6); assay: Inhibition of recombinant human N-terminal GST-tagged HIPK2 expressed in baculovirus expression system at 1 uM by kinomescan assay relative to control
[15] = target: Homeodomain-interacting protein kinase 3 (Homo sapiens) (UniProt Q9H422); assay: Inhibition of recombinant human His-tagged HIPK3 expressed in baculovirus expression system at 1 uM by kinomescan assay relative to control
[16] = test system: Receptor-type tyrosine-protein kinase FLT3 (Homo sapiens), P36888 [R834Q]; assay: Inhibition of recombinant human His-tagged FLT3 R834Q mutant expressed in baculovirus expression system at 1 uM by kinomescan assay relative to control
[17] = target: Homeodomain-interacting protein kinase 4 (Homo sapiens) (UniProt Q8NE63); assay: Inhibition of recombinant human His-tagged HIPK4 expressed in baculovirus expression system at 1 uM by kinomescan assay relative to control
[18] = target: Myosin light chain kinase, smooth muscle (Homo sapiens) (UniProt Q15746); assay: Inhibition of recombinant human GST-tagged MLCK expressed in baculovirus expression system at 1 uM by kinomescan assay relative to control
[19] = target: Platelet-derived growth factor receptor alpha (Homo sapiens) (UniProt P16234); assay: Inhibition of recombinant human GST-tagged PDGFRA expressed in baculovirus expression system at 1 uM by kinomescan assay relative to control
Sequence of Platelet-derived growth factor receptor alpha (Homo sapiens) (P16234 whole entry): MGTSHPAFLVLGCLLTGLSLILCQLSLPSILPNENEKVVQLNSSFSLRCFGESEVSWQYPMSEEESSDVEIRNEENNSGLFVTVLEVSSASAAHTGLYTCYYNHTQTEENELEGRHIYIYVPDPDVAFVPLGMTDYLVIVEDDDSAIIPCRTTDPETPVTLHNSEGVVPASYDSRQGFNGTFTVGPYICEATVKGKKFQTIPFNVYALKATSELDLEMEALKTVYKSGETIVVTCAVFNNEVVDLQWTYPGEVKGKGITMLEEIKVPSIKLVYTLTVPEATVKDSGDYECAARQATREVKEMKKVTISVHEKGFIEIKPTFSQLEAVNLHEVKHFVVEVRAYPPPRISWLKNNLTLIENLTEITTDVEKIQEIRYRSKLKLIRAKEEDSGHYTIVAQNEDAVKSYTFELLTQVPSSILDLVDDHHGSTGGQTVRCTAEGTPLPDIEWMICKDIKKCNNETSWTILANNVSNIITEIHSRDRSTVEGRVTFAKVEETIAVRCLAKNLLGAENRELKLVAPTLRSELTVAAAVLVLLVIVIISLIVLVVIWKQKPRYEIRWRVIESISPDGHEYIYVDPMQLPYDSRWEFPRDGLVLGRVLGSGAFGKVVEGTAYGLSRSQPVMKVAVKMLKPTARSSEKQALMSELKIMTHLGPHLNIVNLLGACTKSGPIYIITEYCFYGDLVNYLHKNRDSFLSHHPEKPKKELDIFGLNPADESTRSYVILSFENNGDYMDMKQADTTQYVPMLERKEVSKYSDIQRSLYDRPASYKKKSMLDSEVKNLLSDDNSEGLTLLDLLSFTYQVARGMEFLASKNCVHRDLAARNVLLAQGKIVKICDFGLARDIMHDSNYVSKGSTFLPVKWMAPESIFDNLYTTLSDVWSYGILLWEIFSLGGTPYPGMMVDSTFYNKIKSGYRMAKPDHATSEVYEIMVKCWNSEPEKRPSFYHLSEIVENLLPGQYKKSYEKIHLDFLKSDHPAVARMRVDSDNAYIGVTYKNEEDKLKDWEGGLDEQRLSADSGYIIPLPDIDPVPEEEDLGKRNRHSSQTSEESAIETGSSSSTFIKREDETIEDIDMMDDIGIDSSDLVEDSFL

[20] = target: Receptor-type tyrosine-protein kinase FLT3 (Homo sapiens) (UniProt P36888); assay: Inhibition of recombinant human His-tagged FLT3 expressed in baculovirus expression system at 1 uM by kinomescan assay relative to control
[21] = test system: Receptor-type tyrosine-protein kinase FLT3 (Homo sapiens), P36888 [UNDEFINED MUTATION]; assay: Inhibition of recombinant human His-tagged FLT3 ITD mutant expressed in baculovirus expression system at 1 uM by kinomescan assay relative to control
[22] = test system: Receptor-type tyrosine-protein kinase FLT3 (Homo sapiens), P36888 [D835H]; assay: Inhibition of recombinant human His-tagged FLT3 D835H mutant expressed in baculovirus expression system at 1 uM by kinomescan assay relative to control
[23] = test system: Receptor-type tyrosine-protein kinase FLT3 (Homo sapiens), P36888 [D835V]; assay: Inhibition of recombinant human His-tagged FLT3 D835V mutant expressed in baculovirus expression system at 1 uM by kinomescan assay relative to control
Homo sapiens = organism: Homo sapiens; assay: Inhibition of recombinant human His-tagged FLT3 ITD/D835V double mutant expressed in baculovirus expression system at 1 uM by kinomescan assay relative to control
[24] = test system: Receptor-type tyrosine-protein kinase FLT3 (Homo sapiens), P36888 [N841I]; assay: Inhibition of recombinant human His-tagged FLT3 […] mutant expressed in baculovirus expression system at 1 uM by kinomescan assay relative to control
[25] = target: Mast/stem cell growth factor receptor Kit (Homo sapiens) (UniProt P10721); assay: Inhibition of recombinant human His-tagged KIT expressed in baculovirus expression system at 1 uM by kinomescan assay relative to control
[26] = test system: Mast/stem cell growth factor receptor Kit (Homo sapiens), P10721 [L576P]; assay: Inhibition of recombinant human His-tagged KIT L576P mutant expressed in baculovirus expression system at 1 uM by kinomescan assay relative to control
[27] = test system: Mast/stem cell growth factor receptor Kit (Homo sapiens), P10721 [V559D]; assay: Inhibition of recombinant human His-tagged KIT V559D mutant expressed in baculovirus expression system at 1 uM by kinomescan assay relative to control
Sequence of Mast/stem cell growth factor receptor Kit (Homo sapiens), P10721 [V559D] (P10721 whole entry V559D): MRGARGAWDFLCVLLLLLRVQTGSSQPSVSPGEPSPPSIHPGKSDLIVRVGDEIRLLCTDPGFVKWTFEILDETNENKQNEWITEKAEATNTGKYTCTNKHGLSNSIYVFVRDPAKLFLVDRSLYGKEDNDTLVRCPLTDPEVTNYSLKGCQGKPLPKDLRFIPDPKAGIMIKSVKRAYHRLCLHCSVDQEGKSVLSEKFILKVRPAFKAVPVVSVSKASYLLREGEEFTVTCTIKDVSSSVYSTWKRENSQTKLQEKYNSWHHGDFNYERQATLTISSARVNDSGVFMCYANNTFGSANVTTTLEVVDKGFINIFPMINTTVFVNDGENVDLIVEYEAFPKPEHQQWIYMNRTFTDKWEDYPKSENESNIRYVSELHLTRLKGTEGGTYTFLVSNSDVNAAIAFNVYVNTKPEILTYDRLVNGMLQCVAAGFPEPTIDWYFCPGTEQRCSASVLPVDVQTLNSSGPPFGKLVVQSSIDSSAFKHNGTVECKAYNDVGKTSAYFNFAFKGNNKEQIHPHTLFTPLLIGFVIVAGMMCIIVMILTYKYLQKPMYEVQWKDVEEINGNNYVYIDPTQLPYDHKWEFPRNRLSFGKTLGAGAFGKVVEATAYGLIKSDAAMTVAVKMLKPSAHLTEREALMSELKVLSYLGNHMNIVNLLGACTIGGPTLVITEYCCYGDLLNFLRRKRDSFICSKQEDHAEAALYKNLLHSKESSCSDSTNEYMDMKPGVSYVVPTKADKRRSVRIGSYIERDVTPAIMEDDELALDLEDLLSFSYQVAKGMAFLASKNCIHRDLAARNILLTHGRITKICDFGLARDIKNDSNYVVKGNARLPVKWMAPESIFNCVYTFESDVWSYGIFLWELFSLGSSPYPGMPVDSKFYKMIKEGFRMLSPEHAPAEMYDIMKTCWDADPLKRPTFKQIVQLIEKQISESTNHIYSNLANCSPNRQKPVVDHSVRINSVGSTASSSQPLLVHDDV

[28] = test system: Mast/stem cell growth factor receptor Kit (Homo sapiens), P10721 [V559D,T670I]; assay: Inhibition of recombinant human His-tagged KIT V559D/T670I double mutant expressed in baculovirus expression system at 1 uM by kinomescan assay relative to control
Sequence of Mast/stem cell growth factor receptor Kit (Homo sapiens), P10721 [V559D,T670I] (P10721 whole entry V559D/T670I): as the sequence (P10721 whole entry V559D) above, with T670I counted along it

[29] = test system: Mast/stem cell growth factor receptor Kit (Homo sapiens), P10721 [V559D,V654A]; assay: Inhibition of recombinant human His-tagged KIT V559D/V654A double mutant expressed in baculovirus expression system at 1 uM by kinomescan assay relative to control
[30] = test system: Tyrosine-protein kinase ABL1 (Homo sapiens), P00519 [F317I]; assay: Inhibition of phosphorylated recombinant human His-tagged ABL1 F317I mutant expressed in baculovirus expression system at 1 uM by kinomescan assay relative to control
[31] = test system: Tyrosine-protein kinase ABL1 (Homo sapiens), P00519 [F317L]; assay: Inhibition of phosphorylated recombinant human His-tagged ABL1 F317L mutant expressed in baculovirus expression system at 1 uM by kinomescan assay relative to control
[32] = target: T1, Serine/threonine-protein kinase/endoribonuclease IRE1; assay: Inhibition of tunicamycin-induced GFP-fused IRE1alpha (unknown origin) oligomerization expressed in HEK293 cells assessed as reduction in fluorescent foci formation after 5 hrs by fluorescence based assay; format: cell-based
Target sequence in this assay (O75460 whole entry, the tested form may be a part): as the sequence (O75460 whole entry, the tested form may be a part) above

[33] = target: Receptor-type tyrosine-protein kinase FLT3 (Homo sapiens) (UniProt P36888); assay: Inhibition of auto-inhibited recombinant human His-tagged FLT3 expressed in baculovirus expression system at 1 uM by kinomescan assay relative to control
[34] = target: T1, Serine/threonine-protein kinase/endoribonuclease IRE1; assay: Inhibition of thapsigargin-induced IRE1alpha (unknown origin) expressed in HEK293 cells assessed as reduction in IRE1alpha-dependent splicing of XBP1u-luciferase mRNA by luciferase reporter gene assay; format: cell-based
Target sequence in this assay (O75460 whole entry, the tested form may be a part): as above

[35] = target: T1, Serine/threonine-protein kinase/endoribonuclease IRE1; assay: Inhibition of tunicamycin-induced IRE1alpha-dependent splicing of XBP1s-mRNA transcription in human H929 cells assessed as reduction in […] mRNA expression in at 0.5 to 10 uM by RT-qPCR analysis; format: cell-based
HEK293 = assay: cells; settings: Homo sapiens
Description: Cytotoxicity against HEK293 cells co-expressing XBP1u-mRNA by luciferase reporter gene assay

Structure (SMILES): Clc1cc(NC2CCOCC2)c2ncc(-c3ccc4[nH]ncc4c3)n2n1
- solubility kinetic (physchem): 2.2 µM (≈ 0.811 µg/mL)

Structure (SMILES): CN(c1ccccc1)c1nc2cc(-c3cnc4c(NCC5CC5)cc(Cl)nn34)ccc2[nH]1
- IC50 [1]: > 10 µM
- IC50 [2]: > 10 µM

Structure (SMILES): CN1CCC(Nc2cc(Cl)nn3c(-c4ccc5[nH]c(Nc6ccccc6)nc5c4)cnc23)CC1
- logD [3]: 2.7
- solubility kinetic (physchem): 41 µM (≈ 19.4 µg/mL)

Structure (SMILES): O=C(CN1CCOCC1)N[C@H]1CC[C@H](Nc2cc(Cl)nn3c(-c4ccc5[nH]ncc5c4)cnc23)CC1
- inhibition [4]: > 90%
- inhibition [5]: > 90%
- inhibition [6]: > 90%
- inhibition [7]: > 90%
- IC50 [1]: 0.24 µM
- IC50 [2]: 0.087 µM
- IC50 [8]: 0.027 µM
- IC50 [9]: 1.12 µM
- inhibition [10]: > 90%
- inhibition [11]: > 90%
- inhibition [12]: > 90%
- inhibition [13]: > 90%
- inhibition [14]: > 90%
- inhibition [15]: > 90%
- inhibition [16]: > 90%
- inhibition [17]: > 90%
- inhibition [18]: > 90%
- inhibition [19]: > 90%
- inhibition [20]: > 90%
- inhibition [21]: > 90%
- inhibition [22]: > 90%
- inhibition [23]: > 90%
- inhibition (Homo sapiens): > 90%
- inhibition [24]: > 90%
- inhibition [25]: > 90%
- inhibition [26]: > 90%
- inhibition [27]: > 90%
- inhibition [28]: > 90%
- inhibition [29]: > 90%
- inhibition [30]: > 90%
- inhibition [31]: > 90%
- IC50 [32]: 1.88 µM
- inhibition [33]: > 90%
- IC50 [34]: 0.68 to 1.63 µM
- inhibition [35]: Active
- EC50 (HEK293): > 49 µM

Structure (SMILES): Clc1cc(NCC2CC2)c2ncc(-c3ccc4cn[nH]c4c3)n2n1
- IC50 [1]: > 10 µM
- IC50 [2]: > 10 µM

Structure (SMILES): Cn1ncc2cc(-c3cnc4c(NCC5CC5)cc(Cl)nn34)ccc21
- IC50 [1]: > 10 µM
- IC50 [2]: > 10 µM
